According to patent publication US12544365B2, “Pharmaceutical combination of an EP4 antagonist and immune checkpoint inhibitors for the treatment of tumours” (ROTTAPHARM BIOTECH S.R.L., priority 2019, dated 2026):

Assays:
[1] = target: human recombinant EP4 receptor (Homo sapiens, UniProt P35408); experiment: [3H]-PGE2 specific binding on human recombinant EP4 receptor (HEK293 membranes)
Description: Cell membranes were prepared from HEK293 cell line (Human Embryonic Kidney 293) stably overexpressing human recombinant EP4 receptor. Cells grow adherent in DMEM with Glutamax | containing 10% FBS at 37° C. with 5% CO2. For membranes preparation, culture medium was aspirated from 150 cm^2 flasks in which cells were seeded. Cell monolayers were washed with 10 ml of hypotonic lysis buffer (TRIS 5 mM+EDTA 5 mM-pH 7.4), then cells were detached and lysed with the same buffer and by mechanical scraping. Lysates were centrifuged at 40000×g at 4° C. for 22 min. Pellets were stored at −80° C. until the use.
[3H]-Prostaglandin E2 ([3H]-PGE2) binding assays were performed in 10 mM MES-KOH buffer pH6, containing 10 mM MgCl2 and 1 mM CaCl2. Ten microgram of protein from membrane fractions are incubated in a total volume of 0.1 ml with 1 nM [3H]-PGE2. In order to determine the total binding or the non specific binding, 1% DMSO or 1 μM PGE2 were added to reaction mixtures, respectively. The specific binding represented >85% of total binding. In competition curves, the diluent was substituted by the test compounds (8 concentration spanning at least 2 order of magnitude; points in duplicates). In an independent series of experiments, competition curves of the same compounds were performed in the presence of Bovine Serum Albumin 0.5%. Incubation was carried out in a 96 multiwell plate for 90 min at room temperature, prior to separation of the bound and free radioligand by rapid filtration on glass fiber filters (Unifilter GFB96, PerkinElmer Inc) pre-soaked in 0.3% polyethyleneimine. Filters were washed with ice cold buffer pH 7.4 (50 mM HEPES, NaCl 500 mM, BSA 0.1%), dried for 30 minutes at 30° C. and then 0.1 ml of MICROSCINT-20 (PerkinElmer Inc) were added. The residual [3H]-PGE2 binding was determined by solid scintillation counter (TopCount, PerkinElmer Inc), after at least 1 hour of stabilization. Results of the competition curves were expressed as IC50 and the corresponding Ki were calculated according to the Chang-Prousoff equation. Finally the Ki value was transformed in pKi (the negative log of Ki).

[2] = system: TNF-α gene expression in human THP-1 macrophages; experiment: TNF-α gene expression in THP-1 cells differentiated to macrophages (LPS + PGE2), RT-PCR; type: cell-based; details: LPS 10 ng/ml + PGE2 10 nM, 3 hours, concentration as low as 0.1 μM
Description: The human monocyte cell line THP-1, obtained from the ATCC, was grown according to the instructions provided. THP-1 cells were differentiated to macrophages with 100 nM phorbol 12-myristate 13-acetate (PMA) (Sigma Aldrich) for 4 days. Macrophages were then stimulated with lipopolysaccharide (LPS) (Sigma Aldrich) 10 ng/ml and PGE2 0.01 μM for 3 hours. Total RNA was purified using the ABI Prism 6100 Nucleic Acid PrepStation (Applied Biosystems, Foster City, CA, USA) and retrotranscribed using the High-Capacity cDNA Reverse Transcription Kit (Thermo Fisher Scientific). RT-PCR analysis was performed using the Applied Biosystems 7500 Fast Real-Time PCR System using specific TaqMan assays (number Hs00174128_m1; Thermo Fisher Scientific) and, as an endogenous control, the 18S Pre-Developed TaqMan® Assay (Thermo Fisher Scientific). The data analysis, with normalisation on 18S amplified values, was done following Thermo Fisher Scientific's specific instructions for gene expression relative quantification. All individual data are the result of at least three different analyses for each sample.
To evaluate the Compound 1 potential in counteracting the PGE2 induced inhibition of TNF-α gene expression in human macrophages, THP-1 cells were differentiated to macrophages and subsequently treated with LPS 10 ng/ml plus PGE2 10 nM+Compound 1 in the 0.01 μM to 10 μM concentrations range for 3 hours.

[3] = system: RANK-L gene expression in MDA-MB-231 cells; experiment: RANK-L gene expression in MDA-MB-231 cells stimulated with PGE2, RT-PCR; type: cell-based, human; details: 10 μM compound + 10 μM PGE2, 24 hours
Description: The human mammary gland adenocarcinoma MDA-MB-231 cells were obtained from ATCC and grown according to the instructions provided.
Cells were treated with 10 μM PGE2+Compound 1 10 μM for 24 hours. Total RNA was purified using the ABI Prism 6100 Nucleic Acid PrepStation (Applied Biosystems, Foster City, CA, USA) and retrotranscribed using the High-Capacity cDNA Reverse Transcription Kit (Thermo Fisher Scientific). RT-PCR analysis was performed using the Applied Biosystems 7500 Fast Real-Time PCR System using specific TaqMan assays (Hs00243522_m1; Thermo Fisher Scientific) and, as an endogenous control, the 18S Pre-Developed TaqMan® Assay (Thermo Fisher Scientific). The data analysis, with normalisation on 18S amplified values, was done following Thermo Fisher Scientific specific instructions for gene expression relative quantification. All individual data are the result of at least three different analyses for each sample.
MDA-MB-231 cells treated with 10 μM PGE2+Compound 1 10 μM for 24 hours and the levels of RANKL gene expression were evaluated by quantitative RT-PCR.

CT26 cancer cell tumours = experiment: CT26 syngeneic model of mouse colorectal cancer in Balb/c mice; type: in vivo; details: compounds 30 mg/kg oral daily day 7-23; anti PD-1 i.p. 20 mg/kg day 8, 10 mg/kg days 13, 19, 22
Description: Male Balb/c mice 4-6 weeks old were housed five per cage in a temperature and humidity controlled room with a 12h/12h light/dark cycle. Throughout the experiment the animals had free access to food and water. The Balb/c mice were randomly divided into 6 groups (n=15 in each group): vehicle, Compound 1, Compound 2, anti PD-1, Compound 1+anti PD-1, Compound 2+anti PD-1 group.
CT26 cells were purchased from ATCC and cultured in Dulbecco's Modified Eagle's Medium (DMEM; ThermoFisher Scientific) supplemented with 10% fetal bovine serum (FBS; Sigma Aldrich) at 37° C. in an incubator with 5% CO2. Cells were sub-cultured twice a week until the number of cells needed for inoculation was obtained.
On the day of transplantation (day 0) logarithmic growing phase cells were harvested, diluted in PBS and 10^6 cells in 0.2 ml of PBS were subcutaneously inoculated into the lateral abdominal region of each mouse using a 26G syringe.
On day 7 after inoculation the mice were randomized into the 6 treatment groups each of 15 animals receiving respectively vehicle, Compound 1, Compound 2, anti PD-1 and the combination therapies. […]
Tumour sizes (mm^3) were evaluated twice a week by using a digital caliper. The tumour volumes were calculated measuring the tumour lengths along the major and minor axis and using the formula: Volume=[[…]]/2.

human recombinant EP4 receptor, sequence (P35408 whole entry): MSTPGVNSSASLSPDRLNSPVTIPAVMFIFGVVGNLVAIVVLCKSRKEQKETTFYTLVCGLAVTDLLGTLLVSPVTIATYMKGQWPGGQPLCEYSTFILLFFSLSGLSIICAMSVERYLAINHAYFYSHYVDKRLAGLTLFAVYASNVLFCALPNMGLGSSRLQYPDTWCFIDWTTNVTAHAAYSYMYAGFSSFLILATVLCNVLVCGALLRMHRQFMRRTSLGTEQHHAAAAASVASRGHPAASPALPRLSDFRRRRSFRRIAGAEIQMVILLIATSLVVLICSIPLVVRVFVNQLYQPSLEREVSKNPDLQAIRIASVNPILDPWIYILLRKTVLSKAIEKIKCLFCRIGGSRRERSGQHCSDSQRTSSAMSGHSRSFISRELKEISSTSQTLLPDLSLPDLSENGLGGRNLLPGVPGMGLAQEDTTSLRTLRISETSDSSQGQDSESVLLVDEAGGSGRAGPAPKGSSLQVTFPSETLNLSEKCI

## O=C([O-])c1ccc(C2(NC(=O)[C@H]3CC4(CCN3Cc3ccc(C(F)(F)F)cc3)CC4)CC2)cc1.[Na+] [Compound 1, sodium (R)-4-(1-(6-(4-(trifluoromethyl)benzyl)-6-azaspiro[2.5]octane-5-carboxamido)cyclopropyl)benzoate]
[1]; BSA 0.5%
  Ki: 0.0251 µM
[1]; None (absence of BSA)
  Ki: 0.0126 µM
[2]
  TNF-α gene expression vs cells treated with PGE2+LPS only: two to three fold increase
[3]
  RANK-L gene expression vs 10 μM PGE2: markedly decreased
CT26 cancer cell tumours
  effect on tumour growth (tumour volume): mild inhibitory effect on cancer growth starting at the second week of treatment
